Where a name gives a salt, the structure may show the parent alone.
Key:
granulocyte = test: Peptidases to distinguish leukemia from non-leukemia (Table 6C), grans; assay type: cell-based, human
Excerpt: Artificial intelligence was used to analyze data of cellular enzyme functions, and determine normal and disease states. Peptidases were used to distinguish leukemia from non-leukemia (output pattern). For input patterns lymphocyte and granulocyte cell types were used with aminopeptidases, cathepsins and dipeptidylpeptidase enzyme activities. In this Example, illustrated in Tables 6A-6C, three normals and three leukemia patients were used as known output patterns for the neural network to learn (in practice, the larger the learning set the more accurate unknown prediction will be). Unknowns were then presented to the learned algorithm as shown in the test case examples. Clinical diagnosis was confirmed by physicians. The trained neural network was able to correctly classify the leukemia from the non-leukemia.

granulocytes = test: Normal leukocyte enzyme activity (Table 3A), granulocytes; assay type: cell-based, human; design: unit not given here; settings: normal donors
Excerpt: (§1) The measured fluorescence intensity can be converted from mean channel fluorescence (in peak or integrated mode) to MESF (molecules of equivalent soluble fluorochrome, Flow Cytometry Standards Corp. , San Juan, Puerto Rico) or International Units of hydrolysis per cell. A normal range of enzyme activity is established by assaying males and females in sufficient quantity to characterize the population levels statistically.
(§2) A normal in house adult donor pool was drawn, recording sex and determining that no known disease state was present at the time of sample draw. Criteria for rejecting samples included patients under medication, patients with infection or inflammation of any type, colds and flu as well as any known medical illness such as cancer, heart ailment and high blood pressure. A donor list of 75 patients has been developed and a mean and 2 sd range established. A subgroup of "super normals" was developed from this list by examining the 75 patients to determine which group falls closest to the mean for all enzymes in all cell types tested. These patients were used as the "wellness index" or best group of "normalcy" patients. If a study required the use of children or newborns then this same format was used to develop a data base for these age groups.

lymphocytes = test: Normal leukocyte enzyme activity (Table 3A), lymphocytes; assay type: cell-based, human; design: unit not given here; settings: normal donors
Excerpt: as §1, §2

amino peptidase = test: immune competence, amino peptidase activity in Ficoll prepared lymphocytes (FIG. 4); assay type: cell-based; settings: acute lympholytic Ficoll prepared lymphocytes, FIG. 4B
Excerpt: The cell's ability to fight off an invader lies within its genetics and therefore cell type. The "readiness" however of any genetically capable group of cells to defend is different. A measure of this "readiness" is manifest in the available proteolytic enzymes contained within vacuoles or on the surface of the cell. The assay compound hydrolysis rate increases with increased mass of enzymes giving a picture of immune competence both in number of cells and activity level. […] Images were generated using Universal Imaging.

monocytes = test: Normal leukocyte enzyme activity (Table 3A), monocytes; assay type: cell-based, human; design: unit not given here; settings: normal donors
Excerpt: as §1, §2

cathepsin B = test: enzymatic reaction rate of cathepsin B; assay type: biochemical; settings: 37° C.
Experimental: (§3) The acetate and tartrate salts thus prepared have the following characteristics, respectively: native free fluorescence, 63,000 and 61,000 photons; autohydrolysis rate when measured at 37° C. using a 1 cm path length, -5.56 and -3.8 change in photons per second; and enzymatic reaction rate of cathepsin B at 37° C., +128 and +138 change in photons per second.

native free fluorescence = assay type: physicochemical
Excerpt: Assays for peptidases using assay compounds generate fluorescence generally in the range of 10^-5 to 10^-6 Molar free rhodamine 110. Therefore, it is preferred that the free rhodamine 110 and blocked peptide impurities in the assay reagent should be removed to a concentration of less than the fluorescence generated by about 1×10^-6 M and more preferably less than the fluorescence generated by about 10^-7 Molar free indicator group. This amounts to a 100,000 photon count using rhodamine 110 as a standard at 10^-7 -10^-8 M, preferably 5×10^-8 M in a 1 cm path length cuvette when measured over 10 min. on a photon counting spectrofluorometer manufactured by the SLM Company of Chicago, Ill. This corresponds to a use level on the flow cytometer where no cellular false positive can be detected for a 10 minute period at the highest sensitivity setting. […] The presence of impurities causes a decrease in the storage stability of the compound, resulting in an increased autohydrolysis which leads to increased background fluorescence. A compound should be free of impurities such that when the compound (or reagent containing the compound) is stored at 4° C. for 30 days, preferably 90 days, more preferably 180 days, most preferably one year, the background fluorescence increases less than 10% , preferably less than 5% , most preferably less than 1% over these time periods, respectively. […]

autohydrolysis rate = assay type: physicochemical; settings: 37° C., 1 cm path length
Experimental: A reaction run using the same data collection window without the enzyme source will determine auto-hydrolysis of the substrate and therefore the potential for negative cells to absorb the dye non-specifically resulting in false positive.
as §3

aminopeptidase = test: effect of calcium chloride on aminopeptidase reaction with (H-L-Asp)2 rhodamine 110; assay type: biochemical; settings: approximately 10 mM
Excerpt: The chemical nature of the buffer is important to the reactivity of the assay compound with the cellular enzymes. […] In addition, the assay compound hydrolysis by the enzyme occurs at an increased rate of reaction.

enzyme = test: modulator effect on sensitivity of substituted rhodamine 110 substrates; assay type: cell-based; settings: 1 mM
Excerpt: Modulators are components used to […] the sensitivity of the enzyme for the leaving group. The modulators speed up or slow down the activity of an enzyme by changing the active site. […] Preferred modulators for particular enzymes are included in Table 1.

dipeptide reagent = test: effect of added sodium chloride on dipeptide reagent; assay type: cell-based; settings: addition of 7 mM, pH range 6.5 to 8.7
Excerpt: Inhibitors and poisons (or toxins) are components that can be added to reduce the activity of non-targeted enzymes that provide competing reactions for the leaving group. Inhibitors are usually very selective for a particular enzyme. For example, EDTA only works with enzymes requiring Ca^+2, Mg^+2 and some other metals. […] Preferred inhibitors for particular enzymes are included in Table 1.

NCC(=O)Nc1ccc2c(c1)Oc1cc(NC(=O)CN)ccc1C21OC(=O)c2ccccc21 [GLY, (Gly)2 Rho 110]
enzyme activity (granulocyte; N192 NORMAL): 48.67
NORMAL LEUKOCYTE ENZYME ACTIVITY, GRANS Mean (granulocytes): 29.48
NORMAL LEUKOCYTE ENZYME ACTIVITY, LYMPHS Mean (lymphocytes): 18.18

CC(C)C[C@H](N)C(=O)Nc1ccc2c(c1)Oc1cc(NC(=O)[C@@H](N)CC(C)C)ccc1C21OC(=O)c2ccccc21 [LEU, (Leu)2 Rho 110]
amino peptidase activity (amino peptidase): lost their enzymatic activity
NORMAL LEUKOCYTE ENZYME ACTIVITY, MONOS Mean (monocytes): 120.66
NORMAL LEUKOCYTE ENZYME ACTIVITY, GRANS Mean (granulocytes): 80.19
NORMAL LEUKOCYTE ENZYME ACTIVITY, LYMPHS Mean (lymphocytes): 34.94

CC(C)C[C@H](N)C(=O)NCC(=O)Nc1ccc2c(c1)Oc1cc(NC(=O)CNC(=O)[C@@H](N)CC(C)C)ccc1C21OC(=O)c2ccccc21 [LG]
enzyme activity (granulocyte; N193 NORMAL): 3.55
enzyme activity (granulocyte; N199* NORMAL (later found to have cervical cancer)): 2.02
NORMAL LEUKOCYTE ENZYME ACTIVITY, MONOS Mean (monocytes): 44.56
NORMAL LEUKOCYTE ENZYME ACTIVITY, GRANS Mean (granulocytes): 29.99
NORMAL LEUKOCYTE ENZYME ACTIVITY, LYMPHS Mean (lymphocytes): 13.83

NCCCC[C@H](N)C(=O)Nc1ccc2c(c1)Oc1cc(NC(=O)[C@@H](N)CCCCN)ccc1C21OC(=O)c2ccccc21 [LYS, (H--L--Lys)2 Rho 110.4TFA]
enzyme activity (granulocyte; N194 NORMAL): 1.66
NORMAL LEUKOCYTE ENZYME ACTIVITY, MONOS Mean (monocytes): 7.56
NORMAL LEUKOCYTE ENZYME ACTIVITY, GRANS Mean (granulocytes): 4.27
NORMAL LEUKOCYTE ENZYME ACTIVITY, LYMPHS Mean (lymphocytes): 1.16

CC(C)C[C@H](N)C(=O)NCC(=O)Nc1ccc2c(c1)Oc1cc(NC(=O)CNC(=O)[C@@H](N)CC(C)C)ccc1C21OC(=O)c2ccccc21 [acetate, (H-LEU-GLY)2 Rhodamine 110 Acetate]
enzymatic reaction rate of cathepsin B (cathepsin B): +128 change in photons per second
native free fluorescence (native free fluorescence): 63,000 photons
autohydrolysis rate (autohydrolysis rate): -5.56 change in photons per second

[Ca+2].[Cl-].[Cl-] [calcium chloride]
effect on aminopeptidase reaction with (H-L-Asp)2 rhodamine 110 (aminopeptidase): inhibitory to the enzyme reaction

O[C@H](CS)[C@@H](O)CS [dithioerythritol (DTE), dithioerythritol]
effect on sensitivity of leaving group for enzyme (enzyme; substrates with Ala-Gly and Leu-Gly): does not change the sensitivity
effect on sensitivity of rhodamine 110 substrates (enzyme; substrates with Pro, Gly, Gln-Ser, Val-Lys-Val-Lys, Ala-Ala, Ala-Ala-Ala-Ala): decreases the sensitivity

[Cl-].[Na+] [sodium chloride]
effect on dipeptide reagent (dipeptide reagent): slightly inhibitory effect

CC(C)C[C@H](N)C(=O)NCC(=O)Nc1ccc2c(c1)Oc1cc(NC(=O)CNC(=O)[C@@H](N)CC(C)C)ccc1C21OC(=O)c2ccccc21 [tartrate, (H-LEU-GLY)2 Rhodamine 110 Tartrate]
enzymatic reaction rate of cathepsin B (cathepsin B): +138 change in photons per second
autohydrolysis rate (autohydrolysis rate): -3.8 change in photons per second

Source: patent publication US5776720A, “Assay reagent” (priority 1995, dated 1998)
